Data on 13 compounds can be found in PubChem BioAssay (NCI).

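Interpolation was linear, between the two tested concentrations surrounding the appropriate level; five concentrations were tested over 48 hours in 96-well plates. At the GI50, growth is halved. Definition used: TGI = concentration required for complete inhibition of growth.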

Among the test systems are U251 CNS; CCRF-CEM leukemia; NCI-H23 lung; UACC-257 melanoma; HT29 colon; SW-620 colon; OVCAR-4 ovarian; HCC-2998 colon; COLO 205 colon; NCI-H460 lung.
Holding throughout (test): NCI-60 cell line screen, 48 h

As for `COc1ccc2c(c1)CCC1C2CC[C@@]2(C)C1CC[C@@]2(O)CNC(=O)/C=C/c1ccc(O)c(OC)c1` (stereo partly specified), the GI50 in the assay on U251 CNS was 19 µM; in the assay with CCRF-CEM leukemia, 0.932 µM; in the assay with NCI-H23 lung, 25.5 µM; in the assay with UACC-257 melanoma, 28 µM; in the assay on HT29 colon it was 2.8 µM; in the assay with SW-620 colon it was 58.4 µM. Also, the GI50 is 14.9 µM in the assay with OVCAR-4 ovarian, 17.7 µM with HCC-2998 colon, 14 µM in the assay with COLO 205 colon and 4.02 µM in the assay with NCI-H460 lung. Besides, the TGI in the assay on U251 CNS is 76.6 µM; in the assay with CCRF-CEM leukemia, > 100 µM; with NCI-H23 lung it was > 100 µM; with UACC-257 melanoma, 80 µM; with HT29 colon it was 10.8 µM; with SW-620 colon, > 100 µM. For the same compound, the TGI in the assay on OVCAR-4 ovarian is > 100 µM; in the assay on HCC-2998 colon it was 33.7 µM; in the assay on COLO 205 colon, 35.3 µM; with NCI-H460 lung, > 100 µM.

`O=C(c1ccccc1)C1C(C(=O)c2ccccc2)N1Cc1ccccc1` (stereo unspecified): the TGI in the assay on U251 CNS, in the assay with CCRF-CEM leukemia, in the assay with NCI-H23 lung, in the assay with UACC-257 melanoma, in the assay on HT29 colon and in the assay with SW-620 colon was > 100 µM in each case. The TGI was > 100 µM with OVCAR-4 ovarian, > 100 µM with HCC-2998 colon, 58.3 µM with COLO 205 colon and > 100 µM in the assay on NCI-H460 lung.

For the compound `Cc1ccc(S(=O)(=O)N(/N=C(\N)Oc2ccc(Cl)cc2)C(=N)Oc2ccc(Cl)cc2)cc1`, the TGI with U251 CNS, with CCRF-CEM leukemia, in the assay on NCI-H23 lung, in the assay on UACC-257 melanoma, with HT29 colon and in the assay on SW-620 colon was > 100 µM in each case. For the same compound, the TGI with OVCAR-4 ovarian, in the assay with HCC-2998 colon, in the assay with COLO 205 colon and in the assay with NCI-H460 lung was > 100 µM in each case.

As for `Cc1ccc(Cl)cc1Nc1nc(C(F)(F)F)ccc1C(=O)Nc1cccc(C(F)(F)F)c1`, the GI50 with U251 CNS is 3.68 µM; with CCRF-CEM leukemia it was 2.8 µM; with NCI-H23 lung, 2.63 µM; with UACC-257 melanoma, 2.93 µM; in the assay on HT29 colon, 2.82 µM; in the assay with SW-620 colon it was 4.55 µM. Further, the GI50 with OVCAR-4 ovarian was 3.58 µM; with HCC-2998 colon it was 1.78 µM; in the assay on COLO 205 colon, 1.72 µM; in the assay on NCI-H460 lung, 2.79 µM. Moreover, the TGI turned out to be 14.5 µM in the assay on U251 CNS; 11 µM with CCRF-CEM leukemia; 11.9 µM in the assay with NCI-H23 lung; 8.35 µM in the assay on UACC-257 melanoma; 12.8 µM with HT29 colon; 19.1 µM in the assay on SW-620 colon. The TGI in the assay on OVCAR-4 ovarian stood at 17.8 µM; in the assay on HCC-2998 colon, 4.46 µM; in the assay on COLO 205 colon, 3.36 µM; with NCI-H460 lung, 10.1 µM.

In the case of `O=C(/C=C/c1ccc(C(F)(F)F)cc1)c1ccc(Nc2nc(NCCO)nc(NCCO)n2)cc1`, the GI50 in the assay with CCRF-CEM leukemia is 3.24 µM; in the assay on NCI-H23 lung it was 3.85 µM; in the assay with UACC-257 melanoma, 10.3 µM; in the assay on HT29 colon, 2.5 µM; in the assay on SW-620 colon, 1.97 µM; with OVCAR-4 ovarian it was 4.29 µM. Moreover, the GI50 in the assay on HCC-2998 colon is 3.25 µM; with COLO 205 colon, 2.05 µM; in the assay on NCI-H460 lung, 3.23 µM. Also, the TGI in the assay with CCRF-CEM leukemia worked out at 10.7 µM; in the assay with NCI-H23 lung it was 17.4 µM; in the assay on UACC-257 melanoma, 23.4 µM; in the assay with HT29 colon, 6.91 µM; in the assay with SW-620 colon, 4.25 µM; in the assay with OVCAR-4 ovarian it was 20.8 µM. The values for the TGI in the assay on HCC-2998 colon, in the assay on COLO 205 colon and in the assay on NCI-H460 lung were 11.2 µM, 4.22 µM and 10.6 µM, respectively.

As to `C=C(C=O)C1CC(=O)C(C(=O)OC)[C@@H]2O[C@@](C)(CC2=O)C[C@@H]2OC(=O)[C@]3(O[C@@H]23)[C@@H](C(=O)OC)C1` (stereo partly specified), the GI50 with U251 CNS is 14.6 µM; in the assay with CCRF-CEM leukemia, 5.81 µM; with NCI-H23 lung, 18.3 µM; in the assay with UACC-257 melanoma it was 10.2 µM; in the assay on HT29 colon it was 29 µM; with SW-620 colon, 12.2 µM. Moreover, the GI50 in the assay on OVCAR-4 ovarian is 30 µM; with HCC-2998 colon, 14.4 µM; with COLO 205 colon, 17.2 µM; in the assay with NCI-H460 lung, 24.4 µM. For the same compound, the TGI in the assay with U251 CNS was 39.8 µM; in the assay on CCRF-CEM leukemia, > 100 µM; in the assay with NCI-H23 lung, 42.8 µM; in the assay on UACC-257 melanoma, 28.6 µM; in the assay on HT29 colon, > 100 µM; with SW-620 colon, 47.3 µM. Also, the TGI in the assay with OVCAR-4 ovarian was 92.4 µM; with HCC-2998 colon, 30.8 µM; with COLO 205 colon, > 100 µM; with NCI-H460 lung it was 70.8 µM.

In the case of `COc1cc(C)c(C(=O)O[C@H]2[C@H](O[C@H]3[C@@H](O)COC(O[C@H]4C[C@H]5[C@@H]6CC=C7C[C@@H](O)CC[C@]7(C)[C@H]6CC[C@]5(C)[C@H]4[C@H](C)C(=O)CCC(C)C)[C@@H]3OC(C)=O)OC[C@@H](O)[C@@H]2O)c(C)c1` (stereo partly specified), the GI50 was < 0.01 µM in the assay with U251 CNS; < 0.01 µM in the assay on CCRF-CEM leukemia; 0.384 µM in the assay with NCI-H23 lung; 0.021 µM in the assay with UACC-257 melanoma; 0.157 µM in the assay with HT29 colon; < 0.01 µM in the assay on SW-620 colon. Moreover, the GI50 in the assay on OVCAR-4 ovarian is 0.571 µM; in the assay on HCC-2998 colon, 2.41 µM; with COLO 205 colon it was 0.0307 µM; in the assay on NCI-H460 lung, < 0.01 µM. Further, the TGI came to 12.8 µM in the assay with U251 CNS; 0.102 µM in the assay with CCRF-CEM leukemia; 14.2 µM with NCI-H23 lung; 0.0738 µM in the assay with UACC-257 melanoma; 15.7 µM in the assay with HT29 colon; 0.183 µM in the assay with SW-620 colon. For the same compound, the TGI is 69.9 µM in the assay on OVCAR-4 ovarian, 20.3 µM in the assay with HCC-2998 colon, 0.382 µM with COLO 205 colon and 1.74 µM in the assay with NCI-H460 lung.

On to `COc1ccc(/C=C2\Cc3ccccc3C2=O)cc1OC`, for which the TGI with U251 CNS, in the assay with CCRF-CEM leukemia, with NCI-H23 lung, in the assay with UACC-257 melanoma, with HT29 colon and with SW-620 colon was > 100 µM in each case. Also, the TGI in the assay with OVCAR-4 ovarian, in the assay with HCC-2998 colon, in the assay on COLO 205 colon and in the assay on NCI-H460 lung was > 100 µM each time.

Turning to `CCN(CC)CCN1C(=O)c2c(c(C)c3c(oc4cc(O)ccc43)c2C)C1=O`, the GI50 in the assay with CCRF-CEM leukemia is 2.23 µM; in the assay with NCI-H23 lung it was 1.7 µM; with UACC-257 melanoma, 1.95 µM; in the assay on HT29 colon it was 2.14 µM; in the assay with OVCAR-4 ovarian, 1.69 µM; with HCC-2998 colon, 1.62 µM. Further, the GI50 in the assay on COLO 205 colon is 2.18 µM; with NCI-H460 lung it was 1.75 µM. In addition, the TGI amounted to 6.25 µM with CCRF-CEM leukemia; 3.2 µM in the assay with NCI-H23 lung; 4.15 µM in the assay on UACC-257 melanoma; 5.41 µM in the assay with HT29 colon; 3.37 µM with OVCAR-4 ovarian; 3.03 µM with HCC-2998 colon. Also, the TGI worked out at 5.77 µM in the assay on COLO 205 colon and 3.37 µM in the assay on NCI-H460 lung.

`CCOC1OCCCC1Br` (stereo unspecified): the TGI in the assay with CCRF-CEM leukemia, in the assay on NCI-H23 lung, in the assay with UACC-257 melanoma, in the assay with HT29 colon, with SW-620 colon and with OVCAR-4 ovarian was > 100 µM throughout. Besides, the TGI in the assay on HCC-2998 colon, with COLO 205 colon and in the assay with NCI-H460 lung was > 100 µM each time.

For `O=C1c2ccccc2C(=O)c2c1ccc(C(Br)Br)c2[N+](=O)[O-]`, the GI50 in the assay on U251 CNS is 1.6 µM; with CCRF-CEM leukemia, 0.582 µM; in the assay on NCI-H23 lung it was 1.6 µM; in the assay on UACC-257 melanoma, 1.74 µM; with HT29 colon, 1.72 µM; with SW-620 colon it was 0.488 µM. Moreover, the GI50 in the assay on OVCAR-4 ovarian was 1.34 µM; in the assay on HCC-2998 colon, 2.08 µM; in the assay on NCI-H460 lung, 1.89 µM. The TGI with U251 CNS was 2.97 µM; in the assay with CCRF-CEM leukemia, 2.53 µM; in the assay on NCI-H23 lung, 4.34 µM; in the assay on UACC-257 melanoma, 3.28 µM; with HT29 colon, 3.24 µM; with SW-620 colon, 2.07 µM. Moreover, the TGI in the assay with OVCAR-4 ovarian was found to be 2.73 µM; with HCC-2998 colon, 4.6 µM; in the assay on NCI-H460 lung it was 5.09 µM.

In the case of `Cl.[Pt].[c-]1ccccc1-c1ccccn1.c1ccc(P(c2ccccc2)C([PH+](c2ccccc2)c2ccccc2)[PH+](c2ccccc2)c2ccccc2)cc1`, the GI50 in the assay with U251 CNS was 0.577 µM; in the assay on CCRF-CEM leukemia it was 2.4 µM; with NCI-H23 lung, 1.19 µM; with UACC-257 melanoma, 3.26 µM; with HT29 colon it was 2.3 µM; in the assay with SW-620 colon, 2.32 µM. For the same compound, the figures for the GI50 with OVCAR-4 ovarian, in the assay with HCC-2998 colon and in the assay with NCI-H460 lung were 0.662 µM, 3.64 µM and 2.29 µM, respectively. Besides, the TGI with U251 CNS is 2.69 µM; in the assay on CCRF-CEM leukemia, > 100 µM; with NCI-H23 lung, 18.4 µM; with UACC-257 melanoma it was 38 µM; in the assay with HT29 colon, 8.13 µM; in the assay on SW-620 colon it was 8.31 µM. Also, the TGI with OVCAR-4 ovarian was 8.63 µM; in the assay on HCC-2998 colon it was 18.6 µM; in the assay with NCI-H460 lung, 10 µM.

In the case of `Nc1ncnc2c1c(C(F)(F)F)cn2[C@@H]1O[C@H](CO)[C@@H](O)[C@H]1O`, the GI50 in the assay with U251 CNS was 1.33 µM; with CCRF-CEM leukemia it was 0.102 µM; in the assay on NCI-H23 lung, 0.153 µM; in the assay with UACC-257 melanoma it was 0.306 µM; in the assay on SW-620 colon, 0.0644 µM; in the assay with OVCAR-4 ovarian it was 1.03 µM. Further, the GI50 was 0.633 µM in the assay on HCC-2998 colon, 0.0731 µM in the assay with COLO 205 colon and 0.262 µM with NCI-H460 lung. Besides, the TGI in the assay on U251 CNS was > 89.6 µM; in the assay on CCRF-CEM leukemia, > 100 µM; in the assay with NCI-H23 lung, 5.29 µM; in the assay on SW-620 colon, > 100 µM; with OVCAR-4 ovarian it was > 100 µM; in the assay on HCC-2998 colon, 12.8 µM. For the same compound, the TGI in the assay with COLO 205 colon was 1.4 µM; in the assay on NCI-H460 lung, > 43.6 µM.
